Test results reported in patent US12264139B2, “Aryl sulfonamides as BLT1 antagonists” (Merck Sharp & Dohme LLC, priority 2015, dated 2025).

target: T1, human BLT1 receptor (Homo sapiens, UniProt Q15722); assay: BLT-1 cAMP Assay; assay type: cell-based; conditions: HEK293 cells recombinantly expressing human BLT1; antagonist activity vs forskolin 4 μM and LTB4 2 nM; cAMP (CisBio kit)
T1 construct: expressed in transfected cells; host or cells: HEK293
T1 sequence (Q15722 whole entry): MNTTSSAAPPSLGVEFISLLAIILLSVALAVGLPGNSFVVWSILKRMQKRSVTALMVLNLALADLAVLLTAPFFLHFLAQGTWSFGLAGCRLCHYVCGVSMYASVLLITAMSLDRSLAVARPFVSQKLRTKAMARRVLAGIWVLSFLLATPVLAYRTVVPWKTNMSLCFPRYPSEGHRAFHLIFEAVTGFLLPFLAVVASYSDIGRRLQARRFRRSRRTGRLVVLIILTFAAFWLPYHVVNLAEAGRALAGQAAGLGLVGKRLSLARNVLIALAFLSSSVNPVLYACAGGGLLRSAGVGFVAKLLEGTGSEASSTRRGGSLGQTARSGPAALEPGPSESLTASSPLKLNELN

`CC(c1ccccn1)C1COc2cc(-c3cc(F)ccc3NS(=O)(=O)C(F)(F)F)ccc2C1O` (single isomer, unassigned) [Example 101, 1,1,1-trifluoro-N-(4-fluoro-2-(4-hydroxy-3-(1-(pyridin-2-yl)ethyl)chroman-7-yl)phenyl) methanesulfonamide] and `O=S(=O)(Nc1ccccc1-c1ccc2c(c1)OC[C@H](Cc1ccc(F)cn1)[C@H]2O)C(F)(F)F` (racemic) [Example 29, 1,1,1-Trifluoro-N-(2-((rac-trans)-3-((5-fluoropyridin-2-yl)methyl)-4-hydroxychroman-7-yl)phenyl)methanesulfonamide] are within 1.5-fold of each other in EC50: 678 nM for the first, 464 nM for the second.

Compared with `O=S(=O)(Nc1ccccc1-c1ccc2c(c1)OC[C@@H](Cc1cscn1)[C@@H]2O)C(F)(F)F` (single isomer, unassigned) [Example 51, 1,1,1-trifluoro-N-{2-[(3S,4R or 3R,4S)-4-hydroxy-3-(1,3-thiazol-4-ylmethyl)-3,4-dihydro-2H-chromen-7-yl]phenyl}-methanesulfonamide], `O=S(=O)(Nc1ccccc1-c1ccc2c(c1)OCC(Cc1cc[nH]n1)C2O)C(F)(F)F` (racemic) [Example 6, N-(2-((3,4-Rac-trans)-3-((1H-pyrazol-3-yl)methyl)-4-hydroxychroman-7-yl)phenyl)-1,1,1-trifluoromethanesulfonamide] is 3.4-fold lower in EC50: 808 nM for the first, 240 nM for the second. The second is the more potent here.

Going from `O=S(=O)(Nc1ccccc1-c1ccc2c(c1)OC[C@@H](Cc1ccc(-c3ccccc3)cn1)[C@@H]2O)C(F)(F)F` (single isomer, unassigned) [Example 40, (2-((3R,4S or 3S,4R)-4-hydroxy-3-((5-phenylpyridin-2-yl)methyl)chroman-7-yl)phenyl)((trifluoromethyl)sulfonyl)amide] to `O=S(=O)(Nc1ccccc1-c1ccc2c(c1)OC[C@@H](Cc1cnc(-c3ccccc3)s1)[C@@H]2O)C(F)(F)F` (single isomer, unassigned) [Example 42, 1,1,1-Trifluoro-N-(2-((3S,4R or 3R,4S)-4-hydroxy-3-((2-phenylthiazol-5-yl)methyl)chroman-7-yl)phenyl)methanesulfonamide], the EC50 rises from 18 nM to 445 nM (25-fold). The first is the more potent here.

Compared with `Cc1ccc(CC2COc3cc(-c4ccccc4NS(=O)(=O)C(F)(F)F)ccc3C2O)nc1` (racemic) [Example 11, 1,1,1-Trifluoro-N-(2-((3,4-rac-trans)-4-hydroxy-3-((5-methylpyridin-2-yl)methyl)chroman-7-yl)phenyl)methanesulfonamide], `Cc1cnc(C[C@@H]2COc3cc(-c4ccccc4NS(=O)(=O)C(F)(F)F)ccc3[C@H]2O)s1` (single isomer, unassigned) [Example 52, 1,1,1-trifluoro-N-(2-{(3S,4R or 3R,4S)-4-hydroxy-3-[(5-methyl-1,3-thiazol-2-yl)methyl]-3,4-dihydro-2H-chromen-7-yl}phenyl)methanesulfonamide] is 38-fold higher in EC50: 105 nM for the first, 4040 nM for the second. The first is the more potent here.

Compared with `CS(=O)(=O)Nc1ccccc1-c1ccc2c(c1)OCC(Cc1ccccn1)C2O` (racemic) [Example 30, N-(2-((3,4-Rac-trans)-4-hydroxy-3-(pyridin-2-ylmethyl)chroman-7-yl)phenyl)methanesulfonamide], `O=S(=O)(Nc1ncccc1-c1ccc2c(c1)OC[C@@H](Cc1ccccn1)[C@@H]2O)C(F)F` (single isomer, unassigned) [Example 86, 1,1-Difluoro-N-(3-((3,4-trans)-4-hydroxy-3-(pyridin-2-ylmethyl)chroman-7-yl)pyridin-2-yl)methanesulfonamide] is 2.7-fold lower in EC50: 414 nM for the first, 156 nM for the second. The second is the more potent here.

Compared with `O=S(=O)(Nc1ccccc1-c1ccc2c(c1)OCC(Cc1cccs1)C2O)C(F)(F)F` (racemic) [Example 33, 1,1,1-Trifluoro-N-(2-((3,4-rac-trans)-4-hydroxy-3-(thiophen-2-ylmethyl)chroman-7-yl)phenyl)methanesulfonamide], `O=S(=O)(CC(F)(F)F)Nc1nccnc1-c1ccc2c(c1)OC[C@@H](Cc1ccccn1)[C@@H]2O` (single isomer, unassigned) [Example 76, 2,2,2-Trifluoro-N-(3-((3,4-trans)-4-hydroxy-3-(pyridin-2-ylmethyl)chroman-7-yl)pyrazin-2-yl)ethanesulfonamide] is 35-fold higher in EC50: 53 nM for the first, 1860 nM for the second. The first is the more potent here.
